The source made the active and inactive calls. The calls are words filed in the database; no cut-off is given here.
Experiments:
[1] = biological target: T1, von Hippel-Lindau disease tumor suppressor/Wee1-like protein kinase (Homo sapiens) (UniProt P30291+P40337); assay: PROTAC activity at VHL/Wee1 in human HeLa S3 cells assessed as induction of Wee1 degradation at 1 uM measured after 4 hrs by Western blot analysis; assay type: cell-based
[2] = biological target: T1, von Hippel-Lindau disease tumor suppressor/Wee1-like protein kinase (Homo sapiens); assay: PROTAC activity at VHL/Wee1 in human HeLa S3 cells assessed as induction of Wee1 degradation at 1 uM pretreated with VH298 for 2 hrs followed by incubation with compound for 5 hrs by Western blot analysis; assay type: cell-based
[3] = biological target: T1, von Hippel-Lindau disease tumor suppressor/Wee1-like protein kinase (Homo sapiens); assay: PROTAC activity at VHL/Wee1 in human HeLa S3 cells assessed as induction of Wee1 degradation by measuring reduction in phosphorylation of CDK1 at Tyr15 residue at higher concentration measured after 4 hrs by Western blot analysis; assay type: cell-based
[4] = biological target: T1, von Hippel-Lindau disease tumor suppressor/Wee1-like protein kinase (Homo sapiens); assay: PROTAC activity at VHL/Wee1 in human BT-549 cells assessed as induction of Wee1 degradation at 100 nM and above concentrations measured after 4 hrs by Western blot analysis; assay type: cell-based
[5] = biological target: T1, von Hippel-Lindau disease tumor suppressor/Wee1-like protein kinase (Homo sapiens); assay: PROTAC activity at VHL/Wee1 in human HeLa S3 cells assessed as induction of Wee1 degradation at 1 uM measured after 24 hrs by Western blot analysis relative to control; assay type: cell-based
[6] = biological target: T1, von Hippel-Lindau disease tumor suppressor/Wee1-like protein kinase (Homo sapiens); assay: PROTAC activity at VHL/Wee1 in human PC-3 cells assessed as induction of Wee1 degradation at 100 nM and above concentrations measured after 4 hrs by Western blot analysis; assay type: cell-based
[7] = biological target: T1, von Hippel-Lindau disease tumor suppressor/Wee1-like protein kinase (Homo sapiens); assay: PROTAC activity at VHL/Wee1 in human PC-3 cells assessed as induction of Wee1 degradation by measuring reduction in CDK1 phosphorylation at Tyr15 residue at 100 nM and above concentrations measured after 4 hrs by Western blot analysis; assay type: cell-based
[8] = biological target: T1, von Hippel-Lindau disease tumor suppressor/Wee1-like protein kinase (Homo sapiens); assay: PROTAC activity at VHL/Wee1 in human HeLa S3 cells assessed as induction of Wee1 degradation by measuring reduction in phosphorylation of CDK1 at Tyr15 residue at 1 uM measured after 24 hrs by Western blot analysis relative to control; assay type: cell-based; design: scale not given: the % may be the effect or the level left
BT-549 = assay: Antiproliferative activity against human BT-549 cells assessed as inhibition of cell growth measured after 72 hrs by MTS assay; assay type: functional, cell-based; conditions: BT-549, 72 h
LNCaP = assay: Antiproliferative activity against human LNCaP cells assessed as inhibition of cell growth measured after 72 hrs by MTS assay; assay type: functional, cell-based
[9] = biological target: T1, von Hippel-Lindau disease tumor suppressor/Wee1-like protein kinase (Homo sapiens); assay: PROTAC activity at VHL/Wee1 in human LNCaP cells assessed as induction of Wee1 degradation by measuring reduction in CDK1 phosphorylation at Tyr15 residue at 300 nM and above concentrations measured after 4 hrs by Western blot analysis; assay type: cell-based
[10] = biological target: T1, von Hippel-Lindau disease tumor suppressor/Wee1-like protein kinase (Homo sapiens); assay: PROTAC activity at VHL/Wee1 in human HeLa S3 cells assessed as induction of Wee1 degradation by measuring reduction in phosphorylation of CDK1 at Tyr15 residue at 1 uM pretreated with AZD1775 for 2 hrs followed by incubation with compound for 5 hrs by Western blot analysis; assay type: cell-based
[11] = biological target: T1, von Hippel-Lindau disease tumor suppressor/Wee1-like protein kinase (Homo sapiens); assay: PROTAC activity at VHL/Wee1 in human HeLa S3 cells assessed as induction of Wee1 degradation by measuring reduction in phosphorylation of CDK1 at Tyr15 residue at 30 to 10000 nM measured after 4 hrs by Western blot analysis; assay type: cell-based; conditions: dose 30-10000 nM
MCF7 = assay: Antiproliferative activity against human MCF7 cells assessed as inhibition of cell growth measured after 72 hrs by MTS assay; assay type: functional, cell-based; conditions: MCF7, 72 h
[12] = biological target: T1, von Hippel-Lindau disease tumor suppressor/Wee1-like protein kinase (Homo sapiens); assay: PROTAC activity at VHL/Wee1 in human BT-549 cells assessed as induction of Wee1 degradation by measuring reduction in CDK1 phosphorylation at Tyr15 residue at 300 nM and above concentrations measured after 4 hrs by Western blot analysis; assay type: cell-based; conditions: MCF7
[13] = biological target: T1, von Hippel-Lindau disease tumor suppressor/Wee1-like protein kinase (Homo sapiens); assay: PROTAC activity at VHL/Wee1 in human HeLa S3 cells assessed as induction of Wee1 degradation at 1 uM measured after 24 to 48 hrs by Western blot analysis; assay type: cell-based; conditions: time 24-48 hrs
[14] = biological target: T1, von Hippel-Lindau disease tumor suppressor/Wee1-like protein kinase (Homo sapiens); assay: PROTAC activity at VHL/Wee1 in human LNCaP cells assessed as induction of Wee1 degradation at 300 nM and above concentrations measured after 4 hrs by Western blot analysis; assay type: cell-based
[15] = biological target: T1, von Hippel-Lindau disease tumor suppressor/Wee1-like protein kinase (Homo sapiens); assay: PROTAC activity at VHL/Wee1 in human BT-549 cells assessed as induction of Wee1 degradation by measuring reduction in CDK1 phosphorylation at Tyr15 residue at 100 nM and above concentrations measured after 4 hrs by Western blot analysis; assay type: cell-based
PC-3 = assay: Antiproliferative activity against human PC-3 cells assessed as inhibition of cell growth measured after 72 hrs by MTS assay; assay type: functional, cell-based; conditions: PC-3, 72 h
[16] = biological target: T1, von Hippel-Lindau disease tumor suppressor/Wee1-like protein kinase (Homo sapiens); assay: PROTAC activity at VHL/Wee1 in human HeLa S3 cells assessed as induction of Wee1 degradation at 30 to 3000 nM measured after 4 hrs by Western blot analysis; assay type: cell-based; conditions: dose 30-3000 nM
[17] = biological target: T1, von Hippel-Lindau disease tumor suppressor/Wee1-like protein kinase (Homo sapiens); assay: PROTAC activity at VHL/Wee1 in human MCF7 cells assessed as induction of Wee1 degradation at 300 nM and above concentrations measured after 4 hrs by Western blot analysis; assay type: cell-based
[18] = biological target: T2, Protein cereblon/Wee1-like protein kinase (Homo sapiens) (UniProt P30291+Q96SW2); assay: PROTAC activity at CRBN/Wee1 in human BT-549 cells assessed as induction of Wee1 degradation by measuring reduction in CDK1 phosphorylation at Tyr15 residue at 300 nM and above concentrations measured after 4 hrs by Western blot analysis; assay type: cell-based; conditions: MCF7
[19] = biological target: T2, Protein cereblon/Wee1-like protein kinase (Homo sapiens); assay: PROTAC activity at CRBN/Wee1 in human HeLa S3 cells assessed as induction of Wee1 degradation by measuring reduction in phosphorylation of CDK1 at Tyr15 residue at 100 to 10000 nM measured after 4 hrs by Western blot analysis; assay type: cell-based; conditions: dose 100-10000 nM
[20] = biological target: T2, Protein cereblon/Wee1-like protein kinase (Homo sapiens); assay: PROTAC activity at CRBN/Wee1 in human HeLa S3 cells assessed as induction of Wee1 degradation by measuring reduction in phosphorylation of CDK1 at Tyr15 residue at 1 uM pretreated with AZD1775 for 2 hrs followed by incubation with compound for 5 hrs by Western blot analysis; assay type: cell-based
[21] = biological target: T2, Protein cereblon/Wee1-like protein kinase (Homo sapiens); assay: PROTAC activity at CRBN/Wee1 in human MCF7 cells assessed as induction of Wee1 degradation at 300 nM and above concentrations measured after 4 hrs by Western blot analysis; assay type: cell-based
[22] = biological target: T2, Protein cereblon/Wee1-like protein kinase (Homo sapiens); assay: PROTAC activity at CRBN/Wee1 in human PC-3 cells assessed as induction of Wee1 degradation at 100 nM and above concentrations measured after 4 hrs by Western blot analysis; assay type: cell-based
[23] = biological target: T2, Protein cereblon/Wee1-like protein kinase (Homo sapiens); assay: PROTAC activity at CRBN/Wee1 in human LNCaP cells assessed as induction of Wee1 degradation at 300 nM and above concentrations measured after 4 hrs by Western blot analysis; assay type: cell-based
[24] = biological target: T2, Protein cereblon/Wee1-like protein kinase (Homo sapiens); assay: PROTAC activity at CRBN/Wee1 in human HeLa S3 cells assessed as induction of Wee1 degradation at 1 uM measured after 24 hrs by Western blot analysis relative to control; assay type: cell-based
[25] = biological target: T2, Protein cereblon/Wee1-like protein kinase (Homo sapiens); assay: PROTAC activity at CRBN/Wee1 in human BT-549 cells assessed as induction of Wee1 degradation at 100 nM and above concentrations measured after 4 hrs by Western blot analysis; assay type: cell-based
[26] = biological target: T2, Protein cereblon/Wee1-like protein kinase (Homo sapiens); assay: PROTAC activity at CRBN/Wee1 in human HeLa S3 cells assessed as induction of Wee1 degradation at 1 uM measured after 4 hrs by Western blot analysis; assay type: cell-based
[27] = biological target: T2, Protein cereblon/Wee1-like protein kinase (Homo sapiens); assay: PROTAC activity at CRBN/Wee1 in human HeLa S3 cells assessed as induction of Wee1 degradation at 1 uM pretreated with pomalidomide for 2 hrs followed by incubation with compound for 5 hrs by Western blot analysis; assay type: cell-based
[28] = biological target: T2, Protein cereblon/Wee1-like protein kinase (Homo sapiens); assay: PROTAC activity at CRBN/Wee1 in human LNCaP cells assessed as induction of Wee1 degradation by measuring reduction in CDK1 phosphorylation at Tyr15 residue at 300 nM and above concentrations measured after 4 hrs by Western blot analysis; assay type: cell-based
[29] = biological target: T2, Protein cereblon/Wee1-like protein kinase (Homo sapiens); assay: PROTAC activity at CRBN/Wee1 in human BT-549 cells assessed as induction of Wee1 degradation by measuring reduction in CDK1 phosphorylation at Tyr15 residue at 100 nM and above concentrations measured after 4 hrs by Western blot analysis; assay type: cell-based
[30] = biological target: T2, Protein cereblon/Wee1-like protein kinase (Homo sapiens); assay: PROTAC activity at CRBN/Wee1 in human PC-3 cells assessed as induction of Wee1 degradation by measuring reduction in CDK1 phosphorylation at Tyr15 residue at 100 nM and above concentrations measured after 4 hrs by Western blot analysis; assay type: cell-based
[31] = biological target: T2, Protein cereblon/Wee1-like protein kinase (Homo sapiens); assay: PROTAC activity at CRBN/Wee1 in human HeLa S3 cells assessed as induction of Wee1 degradation at 30 to 10000 nM measured after 4 hrs by Western blot analysis; assay type: cell-based; conditions: dose 30-10000 nM
[32] = biological target: T2, Protein cereblon/Wee1-like protein kinase (Homo sapiens); assay: PROTAC activity at CRBN/Wee1 in human HeLa S3 cells assessed as induction of Wee1 degradation by measuring reduction in phosphorylation of CDK1 at Tyr15 residue at 1 uM measured after 24 hrs by Western blot analysis relative to control; assay type: cell-based; design: scale not given: the % may be the effect or the level left

C=CCn1c(=O)c2cnc(Nc3ccc(N4CCN(CCCC(=O)N[C@H](C(=O)N5C[C@H](O)C[C@H]5C(=O)NCc5ccc(-c6scnc6C)cc5)C(C)(C)C)CC4)cc3)nc2n1-c1cccc(C(C)(C)O)n1 was tested, and the Activity [1] was “Active”, the Activity [2] was “Active” and the Activity [3] was “Active”. For the same molecule, the Activity [4] was “Active”, the Activity [5] was 34% and the Activity [6] was “Active”. For the same molecule, the Activity [7] was “Active”, the Activity [8] was 49% and the IC50 (BT-549) was 2.4 µM. The IC50 (LNCaP) was 5.2 µM, the Activity [9] was “Active” and the Activity [10] was “Active”. For the same molecule, the Activity [11] was “Active”, the IC50 (MCF7) was 7 µM and the Activity [12] was “Active”. For the same molecule, the Activity [13] was “Active”, the Activity [14] was “Active” and the Activity [15] was “Active”. The IC50 (PC-3) was greater than 20 µM, the Activity [16] was “Active” and the Activity [17] was “Active”.

For C=CCn1c(=O)c2cnc(Nc3ccc(N4CCN(CCCC(=O)NCCOCCOCCNc5cccc6c5C(=O)N(C5CCC(=O)NC5=O)C6=O)CC4)cc3)nc2n1-c1cccc(C(C)(C)O)n1 (stereo not given), the Activity [18] was “Active”, the Activity [19] was “Active” and the Activity [20] was “Active”. The Activity [21] was “Active”, the Activity [22] was “Active” and the IC50 (BT-549) was 7.9 µM. The IC50 (LNCaP) was 16.6 µM, the Activity [23] was “Active” and the Activity [24] was 27%. The IC50 (MCF7) was 14 µM, the Activity [25] was “Active” and the Activity [26] was “Active”. For the same molecule, the Activity [27] was “Active”, the Activity [28] was “Active” and the Activity [29] was “Active”. For the same molecule, the Activity [30] was “Active”, the Activity [31] was “Active” and the Activity [32] was 51%. For the same molecule, the IC50 (PC-3) was greater than 20 µM.
